Legend:
Format in all cases: functional, cell-based
[1] = Antiproliferative activity against human SPC-A1 cells by MTT assay; conditions: SPCA1
[2] = system: K562; experiment: Antiproliferative activity against human K562 cells by MTT assay
[3] = system: A549; experiment: Antiproliferative activity against human A549 cells by MTT assay
[4] = system: A2780; experiment: Antiproliferative activity against cisplatin-sensitive human A2780 cells by MTT assay
[5] = system: A2780; experiment: Antiproliferative activity against cisplatin-resistant human A2780 cells by MTT assay

Compound	IC50 [2]	IC50 [3]	IC50 [4]	IC50 [5]	IC50 [1]
C=CCc1cc(/C=N/C2CCCCC2)c(O)c(-c2ccc(O)c(CC=C)c2)c1	90.7 µM	93.3 µM	–	–	88 µM
C=CCc1cc(/C=N\O)c(O)c(-c2cc(/C=N/O)c(O)c(CC=C)c2)c1	21.5 µM	32.4 µM	20.2 µM	29.3 µM	43.8 µM
C=CCc1cc(/C=N/Nc2ccccc2)c(O)c(-c2ccc(O)c(CC=C)c2)c1	> 104 µM	> 104 µM	–	–	> 104 µM
C=CCc1cc(/C=C2\SC(=O)NC2=O)c(O)c(-c2cc(/C=C3\SC(=O)NC3=O)c(O)c(CC=C)c2)c1	> 76.9 µM	> 76.9 µM	–	–	> 76.9 µM
C=CCc1cc(/C=C(\C#N)C(=O)OCC)c(O)c(-c2ccc(O)c(CC=C)c2)c1	95.1 µM	87.4 µM	–	–	92.5 µM
C=CCc1cc(C=O)c(O)c(-c2cc(C=O)c(O)c(CC=C)c2)c1	36 µM	55 µM	–	–	45.3 µM
C=CCc1ccc(O)c(-c2cc(/C=C3\SC(=O)NC3=O)c(O)c(CC=C)c2)c1	81.4 µM	> 102 µM	–	–	> 102 µM
C=CCc1ccc(O)c(-c2cc(/C=C(\C#N)C(=O)OCC)c(O)c(CC=C)c2)c1	47.6 µM	57.6 µM	–	–	62 µM

Continued, in another order:

IC50 [2]	IC50 [3]	IC50 [4]	IC50 [5]	Compound	IC50 [1]
20.7 µM	40.4 µM	33 µM	37.2 µM	C=CCc1cc(/C=N\O)c(O)c(-c2ccc(O)c(CC=C)c2)c1	45 µM
91.6 µM	91.6 µM	–	–	C=CCc1cc(/C=C2\SC(=O)NC2=O)c(O)c(-c2ccc(O)c(CC=C)c2)c1	> 102 µM
32.2 µM	39.8 µM	–	–	C=CCc1cc(/C=N/c2ccccc2)c(O)c(-c2ccc(O)c(CC=C)c2)c1	40.7 µM
38.8 µM	41.8 µM	–	–	C=CCc1cc(C=O)c(O)c(-c2ccc(O)c(CC=C)c2)c1	38.4 µM
78.4 µM	65.6 µM	–	–	C=CCc1cc(-c2ccc(O)c(CC=C)c2)c2oncc2c1	77.3 µM
21.1 µM	35 µM	30.5 µM	41.2 µM	C=CCc1ccc(O)c(-c2ccc(O)c(CC=C)c2)c1 [HONOKIOL]	36.1 µM
24.9 µM	39.5 µM	–	–	C=CCc1ccc(O)c(-c2cc(/C=N/O)c(O)c(CC=C)c2)c1	53.1 µM
42.6 µM	41.1 µM	–	–	C=CCc1cc(/C=N/CCN)c(O)c(-c2ccc(O)c(CC=C)c2)c1	50.3 µM
> 106 µM	> 106 µM	–	–	C=CCc1cc(/C=N/CCCCCC)c(O)c(-c2ccc(O)c(CC=C)c2)c1	> 106 µM
11.9 µM	41.8 µM	16.7 µM	22.4 µM	C=CCc1ccc(O)c(-c2cc(C=O)c(O)c(CC=C)c2)c1	25.5 µM

From ChEMBL document CHEMBL1153073, “Semi-synthesis and anti-proliferative activity evaluation of novel analogues of Honokiol” (Bioorg Med Chem Lett, 2009)
